Data taken from a melting point compilation (Tetko et al.).

Compound | melting point
OCC1OC(OC2C(CO)OC(O)(CO)C2O)C(O)C(O)C1O (stereo not drawn) | 176 °C
CN1CCC23C(=O)CC4C(=CCOC5CC(=O)N(c6c(O)cccc62)C3C54)C1 (stereo not drawn) | 282 °C
CC1C(C(=O)NN)C1C(=O)NN (stereo not drawn) | 242 to 245 °C
CN1CCNC(=O)CCSCCSCCC1=O | 115 to 116 °C
O=C(O)c1cc(F)c(F)c(O)c1F | 143 to 147 °C
Cc1ccccc1P(c1ccccc1)c1ccccc1 | 72 °C
CCCCCCCCCCc1ccc(NC(=O)c2ccc(C)cc2)cc1 | 114 °C
O=C1CCCCO1 | -13 °C
O=C(NCO)NS(=O)(=O)c1ccc(NC(=O)c2ccccc2C(=O)O)cc1 | 162 °C
COc1cc(C=Nn2c(C)cc(C)c(C#N)c2=O)ccc1O | 259 to 260 °C
NS(=O)(=O)c1ccc(SCCCCCO)cc1 | 103 °C
O=C(O)Cc1c[nH]c2ccc(O)cc12 | 162 to 165 °C
CCC1(O)C(=O)OCc2c1cc1n(c2=O)Cc2cc3c(CN(C)C)c(O)ccc3nc2-1 (stereo not drawn) | 216 °C
CN(C)CCc1c[nH]c2ccc(Cn3cncn3)cc12 | 179 °C
Nc1nc(O)nc2[nH]cnc12 | 300 °C
O=C(O)c1ccc(N2CCOCC2)s1 | 135 to 137 °C
C=CCOC(=O)Nc1cc(O)cc(C(=O)O)c1 | 194 to 197 °C
N#CCCN1CCN(CCC#N)CC1 | 65 °C
CC(=O)c1cc(F)cc(Cl)c1 | 53 °C
Cc1ccccc1NC(=S)c1cc(C(C)(C)C)c(O)c(C(C)(C)C)c1 | 257 to 258 °C
Cc1c(C)c([N+](=O)[O-])c(C)c(C)c1[N+](=O)[O-] | 212 °C
CCOC(=O)C1=NN(c2ccc(Cl)cc2Cl)C(=O)C1C(Cl)C1(Cl)C(=O)N(c2ccc(Cl)cc2Cl)N=C1C(=O)OCC (stereo not drawn) | 99 °C
Oc1ccc(Cl)c(F)c1 | 52 °C
COC(=O)[C@]1(O)CC2=C(c3c1cc(OC)nc3Cl)N(C)CCC2 | 153 °C
Cc1ccc(C(C)(C)C)cc1 | -54 °C
FC(F)(F)c1cc(-c2n[nH]c(=S)[nH]2)cc(C(F)(F)F)c1 | 280 °C

Compound | melting point
N#Cc1ccc(Cl)cc1F | 60 °C
Brc1cccc2cc(C=NNc3ccccc3)ccc12 | 151 °C
O=C(O)C(O)c1cccc(F)c1 (stereo not drawn) | 96 °C
NCCNc1ccc([N+](=O)[O-])cn1 | 126 to 128 °C
c1cc2cc3ccc4c(c3nc2c2c1NCOC2)COCN4 | 235 °C
O=[N+]([O-])c1ccc(/C=C\c2ccccc2C=NNc2ccccc2)c([N+](=O)[O-])c1 | 193 °C
NC(=S)NNC(N)=S | 200 to 203 °C
BrCCC(c1ccccc1)c1ccccc1 | 41 °C
Cc1cc2cc3ccccc3cc2cc(C)c1=O | 182 °C
CCC(C)CCC(C)(O)CC (stereo not drawn) | -67.5 °C
Cc1cccc(C(=O)CC#N)c1 | 73 to 75 °C
C=C1CC2C(CCC3(C)C(=O)CCC23)C2(C)C=CC(=O)C=C12 (stereo not drawn) | 190 °C
CN1C(=O)COc2ccccc21 | 59 °C
CC(=O)Cc1ncn(-c2cc(C)on2)n1 | 138 to 140 °C
C=CCSc1ncccc1C(=O)O | 147 to 149 °C
NC(CCS(=O)(=O)O)C(=O)O (racemic) | 273 °C
COC(=O)C=C(C)OP(=O)(OC)OC | 21 °C
CC(C)c1cc(Cl)nc(N)n1 | 100 °C
CCc1c(C)nc(NC(=O)NS(=O)(=O)c2cccs2)nc1O | 179 to 180 °C
CCCC(C)O (stereo not drawn) | -73 °C
Cn1cc(C=O)c(N)n1 | 133 to 134 °C
O=[N+]([O-])c1cc(C2CCCCC2)c(O)c([N+](=O)[O-])c1 | 107 °C
O=C1c2ccccc2C(=O)c2c(Nc3cccc4c3C(=O)c3ccccc3C4=O)cccc21 | 300 °C
NC(=O)c1ccc(F)c(Cl)c1 | 146 °C
CC(Cc1cc(=O)c2c3c(c4ccccc4c2o1)OC1CC(=O)OC31)O[Si](C)(C)C(C)(C)C (stereo not drawn) | 188 °C
N#CCCNC1CCCCC1 | 122 to 124 °C

Compound | melting point
CC(=O)Oc1ccc(C#N)cc1 | 57 °C
CC(C)c1cccc(O)c1 | 26 °C
CC(=O)NC1Cc2ccccc21 (stereo not drawn) | 123 °C
O=C(OCC(COC(=O)c1ccccc1)OC(=O)c1ccccc1)c1ccccc1 | 76 °C
O=C(CCl)Nc1cccc(C(F)(F)F)c1 | 62.5 to 64 °C
CCOC(=O)c1[nH]c(C)c(C(=O)OCC)c1C | 137 °C
C=Cc1scnc1C | -15 °C
N#Cc1cnn2c(C(F)(F)F)cc(C(F)(F)F)nc12 | 75 to 77 °C
NNC(=O)c1ccc(Cl)nc1 | 250 °C
Cc1ccccc1C(=O)Cc1ccc(C(N)=O)cc1 | 187 to 188 °C
O=C(NC(=O)c1ccccc1Cl)Nc1ccc(OC(F)(F)F)cc1 | 195 °C
O=C(COc1ccc(Cl)cc1)Nc1nc2ccc(Br)cc2s1 | 236 °C
COc1ccc(C2Nc3nc(C(F)(F)F)nn3C(N)=C2C#N)cc1 (stereo not drawn) | 211 °C
CC(C)(C)OC(=O)N[C@@H]1CC[C@H](C(=O)O)C1 | 112 °C
CN(C)C(=S)Sc1ccc([N+](=O)[O-])cc1[N+](=O)[O-] | 152 °C
Cc1cccc2cc3ccc4ccccc4c3cc12 | 118 °C
O=Cc1ccccc1OCC(=O)O | 133 °C
CC(C)(NC(=O)C(Br)C(C)(C)C)c1ccccc1 (stereo not drawn) | 180 °C
COc1ccccc1-c1nnc2n1NC(c1ccc(N(C)C)cc1)S2 (stereo not drawn) | 228 to 230 °C
OC(c1ccc(Cl)cc1)c1cc2ccccc2o1 (stereo not drawn) | 48.5 °C
C=CCCCC=C | -129 °C
Cc1cc([N+](=O)[O-])cc(Br)c1N | 177 to 183 °C
COc1ccc(-c2csc(/C(C#N)=N\Nc3ccc(C)cc3)n2)cc1 | 151 °C
O=Cc1ncccc1F | 49 to 52 °C
CC(=O)Oc1ccc(C(C)=O)c(O)c1 | 57 to 59 °C
COc1ccc(O)c(F)c1F | 105 °C

Compound | melting point
COc1cc(C=O)c([N+](=O)[O-])cc1OC | 133 °C
Cc1nc(-c2ccc(S(=O)(=O)Cl)cc2)cs1 | 111 to 112 °C
COS(=O)(=O)c1cc([N+](=O)[O-])ccc1C=Cc1ccc([N+](=O)[O-])cc1S(=O)(=O)OC | 228 °C
COC(=O)c1ccc(=O)oc1 | 70 °C
CC(C)C1=C(O)C(=O)C2=C(C1=O)C(O)C(O)C1C(C)(C)CCCC21C (stereo not drawn) | 203 to 205 °C
O=C(O)C(F)(F)C(F)(F)C(F)(F)C(F)(F)C(F)(F)F | 10 °C
O=C=Nc1ccc(OCc2ccccc2)cc1 | 61 to 63 °C
Cc1cccc(NC(=O)c2cncc(Cl)n2)c1 | 84 °C
CC12CCC(C(C(=O)O)C1=O)C2(C)C (stereo not drawn) | 128 °C
Cc1nc(-c2ccccc2)sc1CO | 99 to 102 °C
O=Cc1c(Br)sc2ccc(Cl)cc12 | 139 to 140 °C
Cc1cc2c(C#N)c3sc4ccccc4n3c(=O)c2c(C)n1 | 287 °C
COc1ccc2sc(S)nc2c1 | 196 °C
CC(=O)OC[C@@H](OC(C)=O)[C@H](OC(C)=O)[C@H](OC(C)=O)[C@@H](OC(C)=O)c1nnn[nH]1 | 109 °C
O=C1c2ccccc2C(=O)c2cc(O)ccc21 | 306 °C
Cc1cc(Cl)ccc1[N+](=O)[O-] | 23 to 25 °C
CN(C)c1ccc(C#N)cc1 | 74 °C
CC(=O)Nc1ccc(C#Cc2ccc(NC(C)=O)cc2)cc1 | 281 °C
O=C1OS(=O)(=O)c2c(Br)c(Br)c(Br)c(Br)c21 | 215 to 220 °C
O=C=NS(=O)(=O)c1ccc(F)cc1 | 32 to 39 °C
Cc1cccc(C)c1NC(=O)c1cnc(C(C)(C)C)c(Cl)n1 | 146 °C
CCc1cc2ccccc2ccc1=O | 49 °C
CCCCCCCCC=CCCCCCCCC(=O)OC(=O)CCCCCCCC=CCCCCCCCC | 22 to 23 °C
C=Cc1c2ccccc2cc2ccccc12 | 64 to 66 °C
CCOC(=O)c1cnn(-c2ccccc2)c1N | 99.5 °C
COc1ccc2sc(C)nc2c1 | 36 °C

Compound | melting point
O=C1NN(c2ccccc2)C(=O)C1=C1SC=C(c2ccccc2)S1 | 288 to 290 °C
COC(=O)c1ccc(S(=O)(=O)Cl)n1C | 79 to 81 °C
ClC1=C(Cl)C2(Cl)C3C(Cl)OC(Cl)C3C1(Cl)C2(Cl)Cl (stereo not drawn) | 121 °C
N[C@@H](Cc1ccccc1)C(=O)O | 270 to 275 °C
CON=C(C(=O)O)c1csc(N)n1 | 176 to 182 °C
Cc1onc(-c2ccccc2)c1CO | 81 to 82 °C
O=S(=O)(Cl)c1c(Cl)nc2sccn12 | 137 to 139 °C
CCOc1cc2c(cc1OCC)C(CC#N)NCC2 (stereo not drawn) | 99 to 102 °C
O=C(N[C@@H]1CCCC[C@@H]1C(=O)O)c1ccccc1 | 204 to 208 °C
O=C(O)c1cccc(I)c1C(=O)O | 178 to 182 °C
O=C(O)C=Cc1ccc(Cl)cc1Cl | 245 to 248 °C
Cc1[nH]c(=O)n(C(C)(C)C)c(=O)c1Cl | 176 °C
O=c1on(-c2ccccc2)cc1-c1ccccc1 | 175 °C
Ic1ccc(-n2cccn2)cc1 | 91 to 92 °C
O=C(O)c1sccc1C1OCCO1 | 142 to 144 °C
O=Cc1ccc(Br)c(Br)c1 | 71 °C
N#Cc1ccc2sccc2c1 | 69 to 71 °C
Cc1ccc(C(=O)C=Cc2ccc(Cl)cc2)cc1 | 122 °C
COc1ccc(CCN)cc1OC | 12 to 15 °C
C1=CCCCC=C1 | -110 °C
c1cc2c3c(c1)CCC3CCC2 (stereo not drawn) | 12.8 °C
O=C(C=Cc1ccccc1)c1cccs1 | 76 to 78 °C
Nc1cc(C(F)(F)F)ccc1[N+](=O)[O-] | 100 °C
Oc1ccc2ccccc2c1Cc1c(O)ccc2ccccc12 | 188 to 190 °C
